{"source": "ChEMBL document CHEMBL5233227", "about": "“Allosteric inhibitors of the STAT3 signaling pathway” (Eur J Med Chem, 2020)", "molecular_target": "Signal transducer and activator of transcription 3 (Homo sapiens, UniProt P40763)", "sequence (P40763 whole entry)": "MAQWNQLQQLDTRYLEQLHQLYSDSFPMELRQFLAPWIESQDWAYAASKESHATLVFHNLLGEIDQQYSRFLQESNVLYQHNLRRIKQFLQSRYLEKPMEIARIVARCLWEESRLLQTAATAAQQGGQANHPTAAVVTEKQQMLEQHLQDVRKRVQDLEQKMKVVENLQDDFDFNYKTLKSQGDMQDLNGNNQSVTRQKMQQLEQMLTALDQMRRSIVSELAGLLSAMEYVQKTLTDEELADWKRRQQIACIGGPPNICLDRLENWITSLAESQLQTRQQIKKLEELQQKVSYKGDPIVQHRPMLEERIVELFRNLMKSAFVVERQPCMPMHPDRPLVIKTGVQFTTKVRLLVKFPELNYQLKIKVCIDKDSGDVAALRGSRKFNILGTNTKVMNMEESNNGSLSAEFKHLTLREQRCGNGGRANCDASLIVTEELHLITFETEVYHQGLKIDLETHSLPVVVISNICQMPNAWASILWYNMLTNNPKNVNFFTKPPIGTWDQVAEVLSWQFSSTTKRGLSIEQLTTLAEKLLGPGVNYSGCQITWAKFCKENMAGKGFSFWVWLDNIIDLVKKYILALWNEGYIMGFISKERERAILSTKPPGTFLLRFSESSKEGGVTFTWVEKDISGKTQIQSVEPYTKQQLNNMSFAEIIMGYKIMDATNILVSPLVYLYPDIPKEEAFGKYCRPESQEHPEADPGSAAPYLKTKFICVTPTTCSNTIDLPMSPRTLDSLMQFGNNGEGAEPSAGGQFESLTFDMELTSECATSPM", "assay": "Inhibition of human STAT3 expressed in human HepG2 cells incubated for 1.5 hrs by luciferase assay", "format": "cell-based"}
{"molecule": "CC(CO)C1OC(=O)C=C2C13OC3CC13COC(=O)C1(C)CC(O)CC23C", "note": "(stereo unspecified)", "values": [{"measurement": "IC50", "value": 200, "unit": "nM"}]}
